Values quoted from earlier work in paper PMC3156379 (Bioorganic & medicinal chemistry letters, 2011).

What was measured:
MAG = target: T1, MAG (Homo sapiens, UniProt P20916); conditions: read-out: Kd for MAG; structures β-linked to synthetic aglycons
T1 sequence (P20916 20-626): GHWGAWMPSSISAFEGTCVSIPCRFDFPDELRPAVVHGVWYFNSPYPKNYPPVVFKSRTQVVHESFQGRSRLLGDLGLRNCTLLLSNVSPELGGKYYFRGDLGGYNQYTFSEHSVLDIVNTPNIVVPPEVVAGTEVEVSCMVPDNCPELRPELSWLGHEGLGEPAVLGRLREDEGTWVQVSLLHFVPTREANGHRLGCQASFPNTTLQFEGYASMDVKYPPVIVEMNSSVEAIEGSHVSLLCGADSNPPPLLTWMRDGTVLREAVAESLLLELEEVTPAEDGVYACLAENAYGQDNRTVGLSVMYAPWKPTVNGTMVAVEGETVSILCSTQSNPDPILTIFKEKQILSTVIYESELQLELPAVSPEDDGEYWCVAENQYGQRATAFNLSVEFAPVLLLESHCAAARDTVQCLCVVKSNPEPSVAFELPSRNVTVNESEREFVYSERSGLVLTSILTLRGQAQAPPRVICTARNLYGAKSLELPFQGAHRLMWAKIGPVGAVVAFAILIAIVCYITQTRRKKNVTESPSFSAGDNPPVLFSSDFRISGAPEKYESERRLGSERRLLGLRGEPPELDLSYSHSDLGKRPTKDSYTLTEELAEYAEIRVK

[1] = tested on: MAG inhibition of neurite outgrowth; conditions: in vitro cell culture model

Structure (SMILES): CC(=O)N[C@H]1[C@H](OCC[Si](C)(C)C)O[C@H](CO[C@]2(C(=O)O)C[C@H](O)[C@@H](NC(C)=O)[C@H]([C@H](O)[C@H](O)CO)O2)[C@H](O)[C@@H]1O[C@@H]1O[C@H](CO)[C@H](O)[C@H](O[C@]2(C(=O)O)C[C@H](O)[C@@H](NC(C)=O)[C@H]([C@H](O)[C@H](O)CO)O2)[C@H]1O [Compound 1]
- Kd (MAG): 820 µM

Structure (SMILES): COC(=O)[C@@H](NC(C)=O)[C@@H](C)O[C@H]1O[C@H](CO)[C@H](O)[C@H](O[C@@H]2O[C@H](CO)[C@H](O)[C@H](O[C@]3(C(=O)[O-])C[C@H](O)[C@@H](NC(C)=O)[C@H]([C@H](O)[C@H](O)CO)O3)[C@H]2O)[C@H]1NC(C)=O.[Na+] [Compound 11a, sialyl-T-antigen]
- reversing MAG inhibition of neurite outgrowth [1]: exhibited activity for reversing MAG inhibition of neurite outgrowth
